Data taken from US20210128596A1, “COMPOSITIONS AND METHODS FOR TREATING SEPTIC CARDIOMYOPATHY” (UNIVERSITY OF PENNSYLVANIA, priority 2017, published 2021).
Entries after “also recorded” stand apart in the source; their conditions may differ.

Columns and labels:
protein kinase A (PKA) = assay: Protein kinase A (PKA) activity in AC16 cells; assay type: cell-based, human
Source text: AC16 cells were either left untreated or treated with SDG, Liposaccharide (LPS), or both.
Cell culture—A human ventricular cardiomyocyte-derived cell line, designated AC-16, was used for some in vitro experiments. Cells were maintained in Dulbecco's modified Eagle's medium-nutrient mixture F-12 (DMEM-F-12; Invitrogen, Carlsbad, Calif.).

AC16 cells [1] = assay: Mitochondrial superoxide (MitoSOX Red) in LPS-treated AC16 cells; assay type: cell-based, human; conditions: LPS 12 h with SDG/LGM2605 (50 μM)
Description: AC16 cells were either left untreated or treated for 12 hours with Liposaccharide (LPS) in the absence or presence of SDG, and subsequently stained with mitosox red.
Measurement of mitochondrial superoxide, mitochondrial membrane potential and mitochondrial number—AC16 cells were cultured in sterile cell culture dishware at approximately 80% confluence. After overnight incubation, cells were treated with LPS (1 μg/ml), LPS and LGM2605 (50 μM). LPS and LGM2605 were diluted in serum free media and the control group was incubated as well with serum free media. At 12 hours after the treatment the AC16 cells were loaded with mitochondrial superoxide indicator MitoSOX Red (5 μM, M36008, Molecular Probes) and incubated for 30 minutes in the dark. Excess MitoSOX Red was removed following three washes with PBS solution. MitoSOX Red fluorescence was recorded at 510 (excitation) and 580 nm (emission).

β adrenergic receptors = assay: Radioligand binding assay for cardiac β-AR density; assay type: in vivo, mouse; conditions: hearts 12 h post-CLP, LGM2605 6 h post-CLP
Description: Radioligand binding assay—Plasma membranes from excised mouse hearts were prepared, and saturation radio-ligand binding was performed as described previously, using ^125I-CYP (iodocyanopindolol; PerkinElmer, Waltham, Mass.) for β-AR density measurement. Data were analyzed by nonlinear regression analysis using GraphPad Prism (GraphPad Software, La Jolla, Calif.).

[2] = Plasma glucose and triglyceride levels in septic mice; assay type: in vivo, mouse
[3] = test system: ventricular tissue of septic mice; assay: Antioxidant-related gene expression in ventricular tissue; assay type: in vivo, mouse; conditions: ventricular tissue 12 hours after CLP
Description: RNA purification and gene expression analysis—Total RNA was purified from AC16 cells or hearts using the TRIzol reagent according to the instructions of the manufacturer (Invitrogen). DNase-treated RNA was used for cDNA synthesis using the ProtoScript II First Strand cDNA Synthesis Kit (New England Biolabs). Quantitative real-time PCR was performed with the Sybr Select Master Mix (Applied Biosystems). Incorporation of the SYBR green dye into the PCR products was monitored with the Applied Biosystems StepOnePlus Real-Time PCR System. Samples were normalized against mouse 36B4 or human rps13 RNA.

[4] = test system: adult cardiomyocytes isolated from septic mice; assay: Mitotracker Red staining of adult cardiomyocytes isolated from septic mice; assay type: in vivo, mouse; conditions: adult cardiomyocytes isolated 12 hours post-CLP
Description: Adult mouse cardiomyocytes isolation-Adult mouse cardiomyocytes (ACMs) were isolated from ventricles of C57BL/6 mice 12 hours post-sham surgery, CLP surgery or combined performance of CLP and treatment with LGM2605 at 6 hours post-surgery. Hearts from heparinized mice (90 USP; ip) were cannulated through the aorta. Hearts were perfused with perfusion buffer (120.4 mMNaCl, 14.7 mM KCL, 0.6 mM NaH2PO4, 0.6 mM KH2PO4, 1.2 mM MgSO4, 10 mM Hepes, 4.6 mM NaHCO3, 30 mMtaurine, 10 mM BDM, 5.5 mM glucose; pH 7.4) for 3 min followed by digestion with perfusion buffer containing 19250 units Collagenese type II (Worthington), 5-6 mg trypsin and 0.02 mM CaCl2 for 7 min. Ventricles were gently […] into small pieces, perfusion buffer containing 5 mg/ml BSA and 0.125 mM CaCl2 was added and filtered with 100 μm nylon. The filtrate was pelleted by gravity for 5 min, centrifuged for 30 sec at 700 rpm and the pellet resuspended in perfusion buffer containing 5 mg/ml BSA and 0.225 mM CaCl2. The cells were pelleted by gravity for 10 min, centrifuged for 30 sec at 700 rpm and the pellet resuspended in perfusion buffer containing 5 mg/ml BSA and 0.525 mM CaCl2. […] Mitotracker Red fluorescence was recorded at 581 (excitation) and 644 nm (emission).

[5] = test system: permeabilized adult cardiomyocytes; assay: Calcium uptake assay in permeabilized adult cardiomyocytes; assay type: in vivo, mouse; conditions: cardiomyocytes isolated 12 h after CLP, 6 h after LGM2605
Description: Calcium uptake assay in permeabilized adult cardiomyocytes Cardiomyocytes were isolated from mice 12 hours after CLP or sham surgery and 6 hours after LGM2605 or saline injection. Calcium uptake was performed as previously described^22 and detailed below. Before permeabilization, cardiomyocytes were washed in a Ca free buffer (120 mM NaCl, 5 mM KCL 1 mM KH2PO4, 0.2 mM MgCl2, 0.1 mM EGTA and 20 mM HEPES-NaOH, at pH 7.4) and stored on ice for at least 10 min. Cardiomyocytes were pelleted by centrifugation and transferred to an intracellular-like medium (permeabilization buffer: 120 mM KCl, 10 mM. NaCl, 1 mM KH2PO4, 20 mM, 4 HEPES-Tris, at pH 7.2, protease inhibitors (EDTA-free complete tablets, Roche Applied Science), 2 μM thapsigargin and digitonin (40 μg ml^−1)). The cell suspension supplemented with succinate (2 mM) was placed in a fluorimeter and permeabilized by gentle stirring. Fura2FF (0.5 μM) was added at 0 s, and JC-1 (800 nM) at 20 s. Fluorescence signal was monitored in a temperature-controlled (37° C.) multiwavelength-excitation dual-wavelength-emission spectrofluorometer (Delta RAM, Photon Technology International) using 490-nm excitation/535-nm emission for the JC-1 monomer. 570-nm excitation/595-nm emission for the J-aggregate of JC-1 and 340-nm/380-nm for Fura2FF. At 400 s, a single 10 μM Ca^2+ pulse was added, and changes in cytosolic [Ca^2] was monitored. […]

AC16 cells [6] = assay: Mitochondrial membrane potential (TMRM staining) in AC16 cells; assay type: cell-based, human
Description: To measure mitochondrial membrane potential, AC16 cells were stained with TMRM (62.5 nM, T668, Molecular Probes) for 30 minutes in the dark. TMRM stain was washed in warm PBS three times and imaged at 200× magnification using the Cy3 filter (510 nm excitation wavelength).

COc1cc(C[C@@H](CO[C@@H]2O[C@H](CO)[C@@H](O)[C@H](O)[C@H]2O)[C@H](CO[C@@H]2O[C@H](CO)[C@@H](O)[C@H](O)[C@H]2O)Cc2ccc(O)c(OC)c2)ccc1O [LGM2605, secoisolariciresinol diglucoside]
protein kinase A (PKA) activity (protein kinase A (PKA); SDG alone): increased protein kinase A (PKA) activity
protein kinase A (PKA) activity (protein kinase A (PKA); SDG in the presence of LPS): this stimulation was abolished in the presence of LPS
protein kinase A (PKA) activity (protein kinase A (PKA); SDG with isoproterenol): the increase was amplified by isoproterenol
mitochondrial superoxide levels (Mitosox Red staining) (AC16 cells [1]): suppressed by LGM2605
mitochondrial superoxide levels (Mitosox Red staining) (AC16 cells [1]; listed as SDG): statistically significant decrease in superoxide levels in LPS-treated cells; also recorded: lower mitosox red staining
cardiac β-AR density (β adrenergic receptors): not reversed by treatment with LGM2605
plasma glucose levels ([2]; 6 hours and 12 hours post-CLP): hypoglycemia in septic mice was not alleviated by the administration of LGM2605
plasma triglyceride levels ([2]; 12 hours after surgery): trend of increase, which did not occur in septic mice treated with LGM2605
cardiac expression of antioxidant genes (NRF2, HO1, GSTM1, NQO1, UCP2, UCP3) [3]: not accompanied by prevention of the CLP-mediated changes in cardiac expression of antioxidant genes
mitochondrial abundance (Mitotracker staining) [4]: prevents CLP-associated reduction in mitochondrial abundance
mitochondrial abundance (Mitotracker staining) ([4]; listed as SDG): restored mitochondrial abundance in vitro and in vivo
mitochondrial calcium uptake [5]: increased mitochondrial Ca^2+ uptake rate and release of Ca^2+ following CCCP administration beyond that observed for sham operated mice
mitochondrial calcium uptake ([5]; listed as SDG): mitochondrial calcium uptake was increased
TMRM staining (mitochondrial membrane potential) (AC16 cells [6]; LGM2605 with 50 μM 2,4-DNP, with or without LPS): lost its beneficial effect in restoring TMRM staining
TMRM staining (mitochondrial membrane potential) (AC16 cells [6]; LPS and LGM2605 12 hours): significantly restored TMRM staining toward baseline
